Measured values from patent publication US7063946B2, “Methods, reagents, kits and apparatus for protein function analysis” (Meso Scale Technologies, LLC., priority 2001, dated 2006).
Each block holds one compound with its values, some of them ahead of it. Where no end group is shown, it is not given here. [ ]: non-standard residue; d: D form. pY = N[C@@H](Cc1ccc(OP(=O)(O)O)cc1)C(=O)O

Assays:
[1] = system: autophosphorylation (phosphotyrosine); assay: In vitro kinase library screen: autophosphorylation; assay type: biochemical
Protocol: (§1) Proteins were produced from DNA plasmids of Mock Luciferase, Promega, tyrosine kinase clone Spleen Tyrosine kinase (SYK, IMAGE ID# 3870426) and Eph receptor-A7 (EphA7, IMAGE ID# 3991628) (Incyte Genomics, CA) and immobilized on streptavidin or avidin coated NPT-IPR plates as described in the Example 7. To promote autophosphorylation in these immobilized and purified proteins, Mn++ ions were added in a 50 μl reaction containing 5 mM MgCl2, 5 mM MnCl2, 100 μM ATP, 25 mM Tris-HCl buffer pH 7.4, 0.05 mM Na3VO4, 0.004% TritonX-100, 2 mM DTT and EDTA-free protease inhibitor (Roche Molecular Biochemicals). This mixture was incubated with shaking at room temperature overnight to allow autophosphorylation. Following this incubation, wells were washed 2 times with TT-buffer and 2 times with water. Following this step, 50 ng Sulfo-TAG labeled anti-phosphotyrosine in buffer containing 25 mM Tris-HCl buffer pH 7.4, 5 mM MgCl2, 0.05 mM Na3VO4, 0.004% TritonX-100, 2 mM DTT and 0.05% IgG in a final volume of 50 μl was added followed by incubation at room temperature for 45 min. The unbound reagents were removed by one time washing with water, and the TAG label was detected in presence of 150 μl IPR assay buffer (0.4 mM Gly—Gly buffer, pH 7.8, 1 mM EDTA, 0.1 M TPA). The ECL signals were measured using an imaging plate reader.
(§2) Proteins were produced in an in vitro transcription and translation reaction as described in the Materials and Methods. […] The reaction was stopped by mixing with BB2 buffer. Biotinylated proteins from 50 μl of the mixture (representing 0.5 μl to 5 μl of TnT reaction) were immobilized onto streptavidin or avidin coated NPT-IPR plates by shaking at room temperature for 45 min. The activity of the immobilized protein towards pEY or autophosphorylation was further assayed by the methods described in examples 7 and 8.

[2] = system: autophosphorylation (phosphotyrosine); assay: Autophosphorylation activity assay of immobilized in vitro translated protein; assay type: biochemical; settings: 0.5 μl of TnT reaction
Protocol: as §1

pEY = assay: In vitro kinase library screen: activity towards pEY; assay type: biochemical; settings: 5 ul of expressed protein
Protocol: (§3) Proteins were produced in an in vitro transcription and translation reaction. […] The unbound components of the reaction containing endogenous kinases were removed by three washes with TT-buffer (25 mM Tris-HCl buffer pH 7.4 and 0.004% Triton), two five minutes washings with high-salt wash buffer (25 mM Tris-HCl buffer pH 7.4, 0.004% Triton, 1M NaCl and 5 mM DTT) and 3 more washes with TT-buffer. To these immobilized and purified proteins a tyrosine kinase substrate, 5 nM pEY (poly Glu-Tyr, Sigma, MO), was added in a 50 μl reaction solution containing 5 mM MgCl2, 5 mM MnCl2, 100 μM ATP, 25 mM Tris-HCl buffer pH 7.4, 0.05 mM Na3VO4, 0.004% TritonX-100, 2 mM DTT and EDTA-free protease inhibitor (Roche Molecular Biochemicals). This mixture was incubated with shaking at room temperature overnight to allow phosphorylation of the pEY substrate by the immobilized kinases. Following this incubation, 45 μl of this mixture was transferred to a streptavidin or avidin-coated NPT IPR plate coated with biotinylated anti-phosphotyrosine antibody (PY20, Zymed labs, CA) followed by incubation for 30 minutes at room temperature to allow the binding of the phosphorylated pEY substrate to the PY20 coated NPT plate. Following this binding step, 50 ng Sulfo-TAG labeled anti-phosphotyrosine in buffer containing 25 mM Tris-HCl buffer pH 7.4, 5 mM MgCl2, 0.05 mM Na3VO4, 0.004% TritonX-100, 2 mM DTT and 0.05% IgG was added followed by incubation at room temperature for 30 mm. The unbound reagents were removed by one time washing with water, and the TAG label was detected in presence of 150 μl IPR assay buffer (0.4 mM Gly-Gly buffer, pH 7.8, 1 mM EDTA, 0.1 M TPA). The ECL signals were measured using an imaging plate reader.
as §2

Fgfr4 [3] = target: T1, Fgfr4 (Mus musculus, UniProt Q03142); assay: Kinase inhibitor profiling, pEY phosphorylation; assay type: biochemical
T1 construct: specificity data for proteins generated from a library of eighteen full-length clones; biotin on random lysines (biotin-Lys-tRNA); host or cells: rabbit reticulocyte lysate, coupled transcription/translation (TnT, Promega)
Protocol: as §3
(§4) Proteins were produced using 100 ng of plasmid DNA Mock (Luciferase, Promega) or tyrosine kinases (Fert2 IMAGE ID # 4485050, FGFR1 IMAGE ID # 4037899, Fgfr2 IMAGE ID # 2654352, Src IMAGE ID # 3156400, BMX IMAGE ID # 3919253, LCK IMAGE ID # 4191610, Epha7 IMAGE ID # 3991628, Ephb4 IMAGE ID # 4013934, Tek IMAGE ID # 3482498, HCK IMAGE ID # 4778819, BTK IMAGE ID # 4478463, CSK IMAGE ID # 4398416, SYK IMAGE ID # 3870426, FGR IMAGE ID # 4419973, PTK2B IMAGE ID # 4339456, FRK(IMAGE ID # 4515877, Kit IMAGE ID # 2644960, Fgfr-4 IMAGE ID # 4239139, NTRK3 IMAGE ID # 4181574, Kdr IMAGE ID # 4238984, Incyte Genomics, CA) and immobilized on SA or avidin coated NPT-IPR plates as described in previous examples. The unbound components of the translation reaction (including any endogenous kinases) were removed by 3 washes with TT-buffer (25 mM Tris-HCl buffer pH 7.4 and 0.004% Triton), two five minutes washes with high-salt wash buffer (25 mM Tris-HCl buffer pH 7.4, 0.004% Triton, 1M NaCl and 5 mM DTT) and 3 washes with TT-buffer. […] The mixture was incubated at room temperature for 10 mm before starting the kinase reaction by adding 25 μl of 200 μM ATP in buffer A. This mixture was incubated with intermittent shaking at room temperature for 2 hours to overnight to allow (a) phosphorylation of the pEY substrate and (b) autophosphorylation of the immobilized kinases. Autophosphorylation and phosphorylation of the pEY was measured as described in Examples 7 and 8.
(§5) The ECL signal in control wells produced by tyrosine kinases was compared to the wells containing inhibitor compounds. The signal produced from Mock was negligible.

CSK = target: T2, CSK (Homo sapiens, UniProt P41240); assay: Kinase inhibitor profiling, pEY phosphorylation; assay type: biochemical
T2 construct: specificity data for proteins generated from a library of eighteen full-length clones; host or cells: rabbit reticulocyte lysate, TnT coupled in vitro transcription/translation (cell-free)
Protocol: as §3, §4, §5

SYK [4] = target: T3, SYK (Homo sapiens, UniProt P43405); assay: Kinase inhibitor profiling, pEY phosphorylation; assay type: biochemical
T3 construct: autophosphorylation activity from full-length clones Spleen Tyrosine Kinase (SYK) and Eph receptor-A7 (EphA7); host or cells: rabbit reticulocyte lysate, TnT coupled in vitro transcription/translation (cell-free)
Protocol: as §3, §4, §5

PTK2B [5] = target: T4, PTK2B (Homo sapiens, UniProt Q14289); assay: Kinase inhibitor profiling, pEY phosphorylation; assay type: biochemical
T4 construct: specificity data for proteins generated from a library of eighteen full-length clones; host or cells: rabbit reticulocyte lysate, TnT coupled in vitro transcription/translation (cell-free)
Protocol: as §3, §4, §5

Kit [6] = target: T5, Kit (Mus musculus, UniProt P05532); assay: Kinase inhibitor profiling, pEY phosphorylation; assay type: biochemical
T5 construct: specificity data for proteins generated from a library of eighteen full-length clones; biotin on random lysines (biotin-Lys-tRNA); host or cells: rabbit reticulocyte lysate, coupled transcription/translation (TnT, Promega)
Protocol: as §3, §4, §5

HCK = target: T6, HCK (Homo sapiens, UniProt P08631); assay: Kinase inhibitor profiling, pEY phosphorylation; assay type: biochemical
T6 construct: specificity data for proteins generated from a library of eighteen full-length clones; host or cells: rabbit reticulocyte lysate, TnT coupled in vitro transcription/translation (cell-free)
Protocol: as §3, §4, §5

Fgfr4 [7] = target: T1, Fgfr4; assay: Kinase inhibitor profiling, autophosphorylation; assay type: biochemical
Protocol: as §1, §4, §5

SYK [8] = target: T3, SYK; assay: Kinase inhibitor profiling, autophosphorylation; assay type: biochemical
Protocol: as §1, §4, §5

PTK2B [9] = target: T4, PTK2B; assay: Kinase inhibitor profiling, autophosphorylation; assay type: biochemical
Protocol: as §1, §4, §5

Kit [10] = target: T5, Kit; assay: Kinase inhibitor profiling, autophosphorylation; assay type: biochemical
Protocol: as §1, §4, §5

[11] = system: tyrosine kinases reported to be the target of each inhibitor; settings: read-out: reported IC50 concentration (1× concentration); for the kinase reported to be the target of the inhibitor; cited from earlier work
FRK = assay: Kinase inhibitor profiling, autophosphorylation; assay type: biochemical
Protocol: as §1, §4, §5

EGFR = target: T7, EGFR (Homo sapiens, UniProt P00533); assay: EGFR binding assay, bound EGFR detected by its tyrosine kinase activity towards pEY; settings: Grb2 plasmid, +EGFR, in presence of the peptide
T7 construct: autophosphorylated tyrosines (self-phosphorylated with ATP before use); purchased Sigma Chemical Co, MO
Protocol: Proteins were produced in an in vitro transcription and translation reaction using 40–100 ng of plasmid DNA. […] The unbound components of the reaction containing endogenous kinases were removed by three washes with TT-buffer (25 mM Tris-HCl buffer pH 7.4 and 0.004% Triton), two five minutes washings with high-salt wash buffer (25 mM Tris-HCl buffer pH 7.4, 0.004% Triton, 1M NaCl and 5 mM DTT) and 3 more washes with TT-buffer. […] The unbound EGFR was washed by 4 times washing with TT-buffer (25 mM Tris-HCl buffer pH 7.4 and 0.004% Triton). The amount of EGFR bound to the reticulocyte lysate expressed protein was determined by detecting the kinase activity of EGFR. A tyrosine kinase substrate, 5 nM pEY (poly Glu-Tyr, Sigma, MO) was added in a 50 μl reaction containing 5 mM MgCl2, 5 mM MnCl2, 100 μM ATP, 25 mM Tris-HCl buffer pH 7.4, 0.05 mM Na3VO4, 0.004% TritonX-100, 2 mM DTT and EDTA-free protease inhibitor (Roche Molecular Biochemicals). This mixture was incubated with shaking at room temperature for 1 or 12 hours to allow phosphorylation of the pEY substrate by the EGFR. […]
The unbound reagents were removed by one time washing with TT-buffer (25 mM Tris-HCl buffer pH 7.4 and 0.004% Triton), and the TAG label was detected in presence of 150 μl IPR assay buffer (0.4 mM Gly-Gly buffer, pH 7.8, 1 mM EDTA, 0.1 M TPA). The ECL signals were measured using an imaging plate reader.

T5 sequence (P05532 25-979): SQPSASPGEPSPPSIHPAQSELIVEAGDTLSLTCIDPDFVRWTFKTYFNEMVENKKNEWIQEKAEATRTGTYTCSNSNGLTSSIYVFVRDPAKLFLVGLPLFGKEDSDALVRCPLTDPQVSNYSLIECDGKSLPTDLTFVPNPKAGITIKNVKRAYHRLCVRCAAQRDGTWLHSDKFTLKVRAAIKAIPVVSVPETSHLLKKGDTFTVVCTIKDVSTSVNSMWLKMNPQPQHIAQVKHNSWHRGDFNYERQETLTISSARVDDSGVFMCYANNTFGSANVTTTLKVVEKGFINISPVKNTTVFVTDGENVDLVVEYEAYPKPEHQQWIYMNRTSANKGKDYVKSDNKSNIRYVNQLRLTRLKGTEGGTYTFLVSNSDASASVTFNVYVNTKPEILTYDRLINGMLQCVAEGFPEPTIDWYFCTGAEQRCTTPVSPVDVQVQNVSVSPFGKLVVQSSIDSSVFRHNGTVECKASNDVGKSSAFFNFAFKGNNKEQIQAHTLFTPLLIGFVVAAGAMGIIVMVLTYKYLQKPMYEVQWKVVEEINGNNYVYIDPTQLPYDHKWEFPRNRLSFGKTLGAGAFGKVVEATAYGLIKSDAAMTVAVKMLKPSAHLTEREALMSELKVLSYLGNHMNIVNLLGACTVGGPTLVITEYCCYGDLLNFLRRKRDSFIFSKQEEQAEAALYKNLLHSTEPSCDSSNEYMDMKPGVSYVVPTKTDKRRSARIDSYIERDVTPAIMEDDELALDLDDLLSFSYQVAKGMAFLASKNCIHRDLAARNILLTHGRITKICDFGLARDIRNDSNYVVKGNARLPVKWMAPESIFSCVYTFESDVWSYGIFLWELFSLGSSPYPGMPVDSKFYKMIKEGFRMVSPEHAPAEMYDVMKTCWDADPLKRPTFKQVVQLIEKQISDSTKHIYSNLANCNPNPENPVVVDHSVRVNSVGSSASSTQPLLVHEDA
T4 sequence (Q14289 whole entry): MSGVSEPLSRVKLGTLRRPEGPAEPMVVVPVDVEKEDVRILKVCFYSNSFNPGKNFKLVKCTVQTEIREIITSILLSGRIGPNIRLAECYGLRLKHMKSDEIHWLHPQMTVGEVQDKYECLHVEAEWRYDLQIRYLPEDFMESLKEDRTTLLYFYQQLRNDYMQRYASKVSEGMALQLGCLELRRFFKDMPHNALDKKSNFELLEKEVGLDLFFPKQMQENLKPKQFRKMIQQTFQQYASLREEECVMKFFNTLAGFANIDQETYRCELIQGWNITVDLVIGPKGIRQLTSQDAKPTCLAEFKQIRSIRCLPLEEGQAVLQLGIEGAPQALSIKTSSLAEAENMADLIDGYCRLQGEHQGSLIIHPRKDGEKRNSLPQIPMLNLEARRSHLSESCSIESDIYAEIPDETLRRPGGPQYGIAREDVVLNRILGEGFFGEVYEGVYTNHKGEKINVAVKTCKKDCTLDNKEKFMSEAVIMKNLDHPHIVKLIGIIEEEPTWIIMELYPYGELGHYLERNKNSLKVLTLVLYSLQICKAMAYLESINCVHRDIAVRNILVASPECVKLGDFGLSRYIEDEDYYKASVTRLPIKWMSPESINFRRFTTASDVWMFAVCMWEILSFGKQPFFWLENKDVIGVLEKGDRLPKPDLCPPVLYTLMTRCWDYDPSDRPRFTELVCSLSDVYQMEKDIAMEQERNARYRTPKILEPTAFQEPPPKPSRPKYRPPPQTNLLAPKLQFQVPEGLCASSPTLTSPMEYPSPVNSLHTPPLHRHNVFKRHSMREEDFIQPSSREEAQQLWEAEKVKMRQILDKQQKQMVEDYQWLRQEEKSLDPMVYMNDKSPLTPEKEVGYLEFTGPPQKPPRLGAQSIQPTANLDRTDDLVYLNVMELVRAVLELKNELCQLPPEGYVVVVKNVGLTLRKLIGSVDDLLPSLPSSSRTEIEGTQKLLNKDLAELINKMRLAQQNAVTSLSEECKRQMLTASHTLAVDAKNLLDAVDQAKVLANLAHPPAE
T1 sequence (Q03142 17-799): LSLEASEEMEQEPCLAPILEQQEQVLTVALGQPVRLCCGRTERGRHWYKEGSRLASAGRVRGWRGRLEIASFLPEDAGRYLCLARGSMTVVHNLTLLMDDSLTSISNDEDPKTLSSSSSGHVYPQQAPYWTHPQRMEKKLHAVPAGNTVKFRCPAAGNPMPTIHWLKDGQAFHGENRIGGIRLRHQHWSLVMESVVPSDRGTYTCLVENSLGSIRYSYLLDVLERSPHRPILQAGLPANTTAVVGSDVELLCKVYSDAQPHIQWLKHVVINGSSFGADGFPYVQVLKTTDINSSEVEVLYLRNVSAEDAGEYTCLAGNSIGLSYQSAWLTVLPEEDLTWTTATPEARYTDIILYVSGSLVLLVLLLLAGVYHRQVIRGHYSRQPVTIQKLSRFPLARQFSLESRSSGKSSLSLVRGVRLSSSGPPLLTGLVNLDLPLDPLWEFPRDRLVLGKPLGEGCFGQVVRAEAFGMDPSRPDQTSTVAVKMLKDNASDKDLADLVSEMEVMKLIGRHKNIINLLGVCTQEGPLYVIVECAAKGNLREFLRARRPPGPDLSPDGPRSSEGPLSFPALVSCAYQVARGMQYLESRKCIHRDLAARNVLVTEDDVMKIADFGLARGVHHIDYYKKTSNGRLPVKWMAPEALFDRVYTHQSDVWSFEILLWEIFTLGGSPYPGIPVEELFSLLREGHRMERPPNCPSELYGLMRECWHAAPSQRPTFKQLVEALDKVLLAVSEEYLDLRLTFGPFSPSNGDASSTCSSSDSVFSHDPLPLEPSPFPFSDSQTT
T6 sequence (P08631 whole entry): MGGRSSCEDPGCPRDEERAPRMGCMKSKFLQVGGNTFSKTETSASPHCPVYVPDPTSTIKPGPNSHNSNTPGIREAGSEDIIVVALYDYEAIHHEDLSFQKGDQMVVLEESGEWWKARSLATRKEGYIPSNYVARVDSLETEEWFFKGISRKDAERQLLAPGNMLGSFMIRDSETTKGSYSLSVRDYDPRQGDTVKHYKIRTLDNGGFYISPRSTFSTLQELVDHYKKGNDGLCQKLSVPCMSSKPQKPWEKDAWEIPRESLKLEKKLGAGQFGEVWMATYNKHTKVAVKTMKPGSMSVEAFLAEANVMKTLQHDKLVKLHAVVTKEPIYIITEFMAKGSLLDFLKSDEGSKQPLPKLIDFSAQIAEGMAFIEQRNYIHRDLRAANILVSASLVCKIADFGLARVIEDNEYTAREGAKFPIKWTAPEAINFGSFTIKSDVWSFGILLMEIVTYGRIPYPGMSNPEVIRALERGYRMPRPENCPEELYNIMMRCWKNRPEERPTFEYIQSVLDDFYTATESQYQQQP

ECL signal [1]: 115,662
fold higher ECL signal than background produced by Mock (Luciferase) [2]: ~47 fold
HTS signal (pEY): 24,930
Compound: 3991628: IMAGE clone protein: EPHA7, Eph receptor A7 [compound 3991628]
ECL signal [2]: 39,967

ECL signal (EGFR): 7,348
Compound: LPVPE(p)YINQSVPKRPAGSVC (LPVPE[pY]INQSVPKRPAGSVC) [Phosphopeptide]

ECL signal (EGFR): 34,055
Compound: Peptide: un-phosphorylated form of the EGFR 1063–1081 peptide (SEQ ID NO: 8) (LPVPEYINQSVPKRPAGSVC; Synthetic Fragment of EGFR-Y1068)

The next lines start with the compound.

Compound: O=C1Nc2ccccc2/C1=C/c1ccc[nH]1 [Oxindole 1]
Inhibition specificity towards pEY phosphorylation at 10X IC50, Fgfr4 (Fgfr4 [3]): M (medium inhibition (“M”=between 25 to 50% of the activity remaining))
Inhibition specificity towards pEY phosphorylation at 10X IC50, CSK (CSK): M (medium inhibition (“M”=between 25 to 50% of the activity remaining))
Inhibition specificity towards pEY phosphorylation at 10X IC50, SYK (SYK [4]): L (low inhibition (“L”=between 50–75% of the activity remaining))
Inhibition specificity towards pEY phosphorylation at 10X IC50, PTK2B (PTK2B [5]): M (medium inhibition (“M”=between 25 to 50% of the activity remaining))
Inhibition specificity towards pEY phosphorylation at 10X IC50, Kit (Kit [6]): H (high inhibition (“H”=less than 25% of the activity remaining))
Inhibition specificity towards pEY phosphorylation at 10X IC50, HCK (HCK): L (low inhibition (“L”=between 50–75% of the activity remaining))
Inhibition specificity towards Autophosphorylation at 10X IC50, Fgfr4 (Fgfr4 [7]): L (low inhibition (“L”=between 50–75% of the activity remaining))
Inhibition specificity towards Autophosphorylation at 10X IC50, SYK (SYK [8]): L (low inhibition (“L”=between 50–75% of the activity remaining))
Inhibition specificity towards Autophosphorylation at 10X IC50, PTK2B (PTK2B [9]): L (low inhibition (“L”=between 50–75% of the activity remaining))
Inhibition specificity towards Autophosphorylation at 10X IC50, Kit (Kit [10]): M (medium inhibition (“M”=between 25 to 50% of the activity remaining))

Compound: CC(C)(C)n1nc(-c2ccc(Cl)cc2)c2c(N)ncnc21 [PP2]
IC50 [11]: 4 nM
Inhibition specificity towards pEY phosphorylation at 10X IC50, Kit (Kit [6]): L (low inhibition (“L”=between 50–75% of the activity remaining))
Inhibition specificity towards Autophosphorylation at 10X IC50, FRK (FRK): L (low inhibition (“L”=between 50–75% of the activity remaining))
